GI50 and TGI data for eight molecules are collected here from PubChem BioAssay (NCI).

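The compound was tested at five concentrations on cells cultured in 96-well plates, with a 48-hour exposure period. GI50 marks 50% less growth. TGI: concentration producing complete growth inhibition.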

Among the test systems are MDA-MB-231 breast; BT-549 breast; MCF7 breast; U251 CNS; SK-MEL-5 melanoma; SR leukemia; UO-31 renal; CCRF-CEM leukemia; MOLT-4 leukemia; CAKI-1 renal.
Holding throughout (experiment): NCI tumour cell line growth inhibition, 48 h

On to `Cc1ccc(NC(=O)c2cccc(C(C)(C)C#N)c2)cc1Nc1ccc2ncn(C)c(=O)c2c1`, for which the GI50 was less than 0.0239 µM in the assay on MDA-MB-231 breast; 5.17 µM with BT-549 breast; 4.4 µM in the assay with MCF7 breast; 7.19 µM in the assay on U251 CNS; 1.26 µM in the assay on SK-MEL-5 melanoma; 4.79 µM in the assay with SR leukemia. The GI50 in the assay with UO-31 renal is 0.475 µM; in the assay with CCRF-CEM leukemia, 5.36 µM; with MOLT-4 leukemia it was 5.2 µM; with CAKI-1 renal, 2.96 µM. The TGI in the assay on MDA-MB-231 breast was more than 29 µM; with BT-549 breast, more than 100 µM; in the assay on MCF7 breast, more than 100 µM; in the assay on U251 CNS, more than 100 µM; in the assay on SK-MEL-5 melanoma it was 20 µM; in the assay on SR leukemia, more than 100 µM. The TGI with UO-31 renal, in the assay with CCRF-CEM leukemia, in the assay on MOLT-4 leukemia and in the assay on CAKI-1 renal was more than 100 µM throughout.
Regarding `Cc1cc(C(=O)Nc2ccc3cc(CN4CCOCC4)ccc3n2)c(C)n1-c1ccccc1`, the GI50 in the assay on MDA-MB-231 breast is 8.09 µM; in the assay with BT-549 breast, 1.17 µM; in the assay with MCF7 breast, 1.87 µM; in the assay with U251 CNS it was 3.78 µM; with SK-MEL-5 melanoma it was 0.202 µM; in the assay on SR leukemia it was 2.6 µM. The GI50 in the assay on UO-31 renal is 2.24 µM; with CCRF-CEM leukemia, 1.86 µM; in the assay on MOLT-4 leukemia, 0.812 µM; in the assay on CAKI-1 renal it was 1.5 µM. The TGI in the assay with MDA-MB-231 breast was 51.8 µM; in the assay with BT-549 breast, 5.84 µM; in the assay with MCF7 breast, 10.8 µM; with U251 CNS, more than 100 µM; in the assay with SK-MEL-5 melanoma it was 0.799 µM; in the assay on SR leukemia, more than 74.8 µM. For the same molecule, the TGI with UO-31 renal was 33.5 µM; with CCRF-CEM leukemia it was more than 93.7 µM; in the assay with MOLT-4 leukemia, 3.29 µM; with CAKI-1 renal, 16.7 µM.
As to `CN1CCN(CCCNc2nc3ccc(Oc4ccc(NC(=O)Nc5cc(C(F)(F)F)ccc5F)cc4)cc3[nH]2)CC1`, the GI50 with MDA-MB-231 breast is 3.97 µM; with BT-549 breast it was 4.23 µM; with MCF7 breast, 4.05 µM; in the assay with U251 CNS, 3.86 µM; in the assay on SK-MEL-5 melanoma it was 3.66 µM; with SR leukemia, 6.33 µM. Also, the GI50 with UO-31 renal was more than 25 µM; in the assay with CCRF-CEM leukemia, 4.96 µM; with MOLT-4 leukemia it was 4.83 µM; in the assay with CAKI-1 renal, more than 25 µM. Besides, the TGI in the assay on MDA-MB-231 breast is 7.65 µM; in the assay with BT-549 breast it was 8.04 µM; with MCF7 breast, 7.61 µM; in the assay on U251 CNS, 7.38 µM; with SK-MEL-5 melanoma, 7.01 µM; in the assay with SR leukemia, more than 16.8 µM. Moreover, the TGI in the assay with UO-31 renal was more than 25 µM; with CCRF-CEM leukemia, 10.8 µM; in the assay on MOLT-4 leukemia, 9.89 µM; with CAKI-1 renal it was more than 25 µM.
Take `COc1cc(OC)c(C(=O)/C=C/c2cccc(C(F)(F)F)c2)c(OC)c1`: the GI50 is 1.76 µM in the assay with MDA-MB-231 breast; 1.08 µM with BT-549 breast; 1.12 µM in the assay on MCF7 breast; 1.01 µM with U251 CNS; 1.07 µM in the assay with SK-MEL-5 melanoma; 0.826 µM in the assay on SR leukemia. Besides, the GI50 in the assay on UO-31 renal was 1.43 µM; in the assay on CCRF-CEM leukemia, 1.09 µM; with MOLT-4 leukemia, 0.873 µM; with CAKI-1 renal it was 2.17 µM. Besides, the TGI in the assay on MDA-MB-231 breast was found to be 6.05 µM; in the assay on BT-549 breast, 2.84 µM; in the assay on MCF7 breast, 7.38 µM; in the assay with U251 CNS it was 2.1 µM; in the assay with SK-MEL-5 melanoma it was 2.54 µM; with SR leukemia, 3.13 µM. Moreover, the TGI with UO-31 renal was found to be 5.24 µM; with CCRF-CEM leukemia it was 3.46 µM; with MOLT-4 leukemia, 3.75 µM; in the assay on CAKI-1 renal it was 7.22 µM.
Regarding `CC(C)c1c(O)c(O)c2c(c1O)C(=O)C(O)=C1C(C)(C)CCC[C@@]12C`, the TGI in the assay on MDA-MB-231 breast amounted to 7.29 µM; in the assay on BT-549 breast, 13 µM; in the assay on MCF7 breast, 12.7 µM; in the assay on U251 CNS, 11.1 µM; in the assay with SK-MEL-5 melanoma, 10.8 µM; in the assay on SR leukemia, 6.59 µM. The TGI amounted to 7 µM in the assay on UO-31 renal, 7.43 µM in the assay with CCRF-CEM leukemia, 5.99 µM with MOLT-4 leukemia and 6.34 µM with CAKI-1 renal.
Take `COc1ccc(C(=O)c2cc(OC)c(OC)c(OC)c2)cc1/C=C/C(=O)c1ccc(F)cc1`: the GI50 is 4.72 µM in the assay on MDA-MB-231 breast; 3.27 µM in the assay on BT-549 breast; 2.3 µM with MCF7 breast; 1.85 µM in the assay with U251 CNS; 4.31 µM with SK-MEL-5 melanoma; 2.04 µM in the assay on SR leukemia. Also, the GI50 in the assay with UO-31 renal was 1.77 µM; in the assay on CCRF-CEM leukemia it was 2.24 µM; in the assay on MOLT-4 leukemia, 3.24 µM; with CAKI-1 renal it was 2.78 µM. Also, the TGI was 84.5 µM in the assay on MDA-MB-231 breast; 13.1 µM with BT-549 breast; 11.1 µM in the assay with MCF7 breast; 3.54 µM in the assay with U251 CNS; 15.5 µM in the assay with SK-MEL-5 melanoma; 95.7 µM with SR leukemia. In addition, the TGI with UO-31 renal came to 3.49 µM; in the assay with CCRF-CEM leukemia, 9.69 µM; in the assay on MOLT-4 leukemia it was 29.3 µM; in the assay on CAKI-1 renal, 14.6 µM.
In the case of `COc1ccc(C(=O)c2cc(C)c(OC)c(C)c2)c(OC)c1O`, the GI50 in the assay with MDA-MB-231 breast is 0.0587 µM; in the assay with BT-549 breast, 0.0272 µM; in the assay on MCF7 breast, 0.235 µM; in the assay on U251 CNS, 0.0485 µM; in the assay on SK-MEL-5 melanoma, 0.0552 µM; with UO-31 renal, 0.0695 µM. The figures for the GI50 in the assay on CCRF-CEM leukemia, with MOLT-4 leukemia and with CAKI-1 renal were 0.0323 µM, 0.0448 µM and 0.185 µM, respectively. In addition, the TGI was more than 100 µM with MDA-MB-231 breast; more than 62 µM in the assay with BT-549 breast; more than 100 µM in the assay on MCF7 breast; more than 100 µM in the assay with U251 CNS; 0.292 µM with SK-MEL-5 melanoma; more than 100 µM in the assay with SR leukemia. In addition, the TGI is more than 54 µM in the assay with UO-31 renal, more than 100 µM with CCRF-CEM leukemia, more than 100 µM with MOLT-4 leukemia and more than 100 µM in the assay on CAKI-1 renal.
For the molecule `NS(=O)(=O)c1ccc(-c2ccc3c(NC(=O)C4CC4)n[nH]c3c2)cc1`, the GI50 in the assay on MDA-MB-231 breast, in the assay on BT-549 breast, in the assay on MCF7 breast, with U251 CNS, with SK-MEL-5 melanoma and in the assay with SR leukemia was more than 25 µM throughout. Moreover, the GI50 with UO-31 renal, in the assay on CCRF-CEM leukemia, in the assay with MOLT-4 leukemia and in the assay with CAKI-1 renal was more than 25 µM in each case. Besides, the TGI with MDA-MB-231 breast, in the assay on BT-549 breast, in the assay on MCF7 breast, with U251 CNS, in the assay with SK-MEL-5 melanoma and in the assay on SR leukemia was more than 25 µM throughout. Also, the TGI with UO-31 renal, with CCRF-CEM leukemia, in the assay on MOLT-4 leukemia and in the assay on CAKI-1 renal was more than 25 µM throughout.
